From patent US4112228A, “7-(D-α-Hydroxy-2-arylacetamido)-3-(2-carboxyalkyl-2,3-dihydro-s-tri azolo-[4,3-b]pyridazin-3-on-6-ylthiomethyl)-3-cephem-4-carboxylic acids and derivatives” (priority 1977, dated 1978)

What was measured:
S. paratyphi = experiment: MIC by Steers' agar dilution method; conditions: Salmonella enterica
[1] = test system: P. mirabilis A9900 (Pm-2); experiment: Standard experimental infection (single sc treatment); conditions: for No. of survivors/No. tested: Run C-810, 1×10^3 LD50, single sc
Shig. flexneri = experiment: MIC by Steers' agar dilution method; format: cell-based; conditions: Shigella flexneri, MHA
S. aureus = experiment: MIC by Steers' agar dilution method; format: cell-based; conditions: Staphylococcus aureus
E. coli Juhl = experiment: Standard experimental infection in mice; format: in vivo; conditions: Table 6
St. faecalis = experiment: MIC by Steers' agar dilution method; conditions: Enterococcus faecalis

Cn1nnnc1SCC1=C(C(=O)O)N2C(=O)[C@@H](NC(=O)[C@H](O)c3ccccc3)[C@H]2SC1 [Cefamandole, cefamandole, reference compound]
0.1 µg/mL: MIC (S. aureus; BX-1633 A9606, MHA, Table 1) | MIC (S. aureus; Sa-12 A9497, MHA, Table 2) | MIC (S. aureus; strain not named, MHA, Example 10)
2/5: No. of survivors/No. tested ([1]; 50 mg./kg.) | No. of survivors/No. tested (E. coli Juhl; 1.6 mg./kg.)
6.3 µg/mL: MIC (Shig. flexneri; A9684, Table 1) | MIC (Shig. flexneri; Example 10) | MIC (S. aureus; Sa-44 A15097, NA, Table 4) | MIC (S. aureus; Sa-59 A15096, MHA, Table 2) | MIC (S. aureus; Sa-61 A20605, MHA, Table 2) | MIC (S. aureus; Sa-64 A20608, MHA, Table 2) | MIC (S. aureus; Sa-65 A20609, MHA, Table 2) | MIC (S. aureus; Sa-66 A20610, MHA, Table 2) | MIC (S. aureus; Sa-67 A20611, MHA, Table 2) | MIC (S. aureus; Sa-69 A20613, MHA, Table 2)
0.0125 µg/mL: MIC (S. aureus; Sa-33 Terajima, MHA, Table 2)
25 µg/mL: MIC (S. aureus; Sa-44 A15097, MHA, Table 2)
0.05 µg/mL: MIC (S. aureus; A9497, MHA, Table 1) | MIC (S. aureus; Smith A9537, MHA, Table 1)
0/5: No. of survivors/No. tested ([1]; 0.2 mg./kg.) | No. of survivors/No. tested ([1]; 0.8 mg./kg.) | No. of survivors/No. tested ([1]; 3.1 mg./kg.) | No. of survivors/No. tested (E. coli Juhl; 0.4 mg./kg.)
1.8 mg/kg: ED50 (E. coli Juhl; Escherichia coli, read-out: PD50)
5/5: No. of survivors/No. tested (E. coli Juhl; 6.3 mg./kg.) | No. of survivors/No. tested (E. coli Juhl; 25 mg./kg.)
1.6 µg/mL: MIC (S. aureus; Sa-58 A15033, MHA, Table 2)
12.5 µg/mL: MIC (S. aureus; Sa-63 A20607, MHA, Table 2)
50 µg/mL: MIC (St. faecalis)
> 100 µg/mL: MIC (St. faecalis; MHA, Example 10) | MIC (St. faecalis; Sf-3 S. faecalis A9536, NA, Table 4)
1/5: No. of survivors/No. tested ([1]; 12.5 mg./kg.)
3.1 µg/mL: MIC (Shig. flexneri; Sr-1 A9684, Table 3) | MIC (S. aureus; Sa-44 A15097, HIA, Table 4) | MIC (S. aureus; Sa-44 A15097, MHA, Table 4) | MIC (S. aureus; Sa-57 A9748, MHA, Table 2) | MIC (S. aureus; Sa-60 A20604, MHA, Table 2)
0.8 µg/mL: MIC (S. aureus; Sa-29 No. 193, MHA, Table 2) | MIC (S. aureus; Sa-37 A9524, MHA, Table 2) | MIC (S. aureus; Sa-56 A9630, MHA, Table 2) | MIC (S. aureus; Sa-62 A20606, MHA, Table 2)
50 mg/kg: ED50 ([1]; Proteus mirabilis, in Mus musculus, sc, read-out: PD50)
100 µg/mL: MIC (St. faecalis; Sf-3 S. faecalis A9536, HIA, Table 4) | MIC (St. faecalis; Sf-3 S. faecalis A9536, MHA, Table 4)
0.4 µg/mL: MIC (S. aureus; BX-1633, MHA, Example 10) | MIC (S. aureus; Sa-10 A20239, MHA, Table 2) | MIC (S. aureus; Sa-11 BX-1633 A9606 (β-lactamase), HIA, Table 4) | MIC (S. aureus; Sa-11 BX-1633 A9606 (β-lactamase), MHA, Table 4) | MIC (S. aureus; Sa-11 BX-1633 A9606 (β-lactamase), NA, Table 4) | MIC (S. aureus; Sa-35 A15094, MHA, Table 2) | MIC (S. aureus; Sa-36 Russell, MHA, Table 2) | MIC (S. aureus; Sa-39 A9578, MHA, Table 2) | MIC (S. aureus; Sa-40 A9601, MHA, Table 2) | MIC (S. aureus; Sa-68 A20612, MHA, Table 2)
0.2 µg/mL: MIC (S. paratyphi) | MIC (S. aureus; Sa-2 Smith A9537, HIA, Table 4) | MIC (S. aureus; Sa-2 Smith A9537, MHA, Table 2) | MIC (S. aureus; Sa-2 Smith A9537, MHA, Table 4) | MIC (S. aureus; Sa-2 Smith A9537, NA, Table 4) | MIC (S. aureus; Sa-3 No. 193, MHA, Table 2) | MIC (S. aureus; Sa-8, MHA, Table 2) | MIC (S. aureus; Sa-9 No. 193, MHA, Table 2) | MIC (S. aureus; Sa-11 BX-1633 A9606, MHA, Table 2) | MIC (S. aureus; Sa-34 A15092, MHA, Table 2) | MIC (S. aureus; Sa-38 A9534, MHA, Table 2) | MIC (S. aureus; Sa-41 A9602, MHA, Table 2) | MIC (S. aureus; Smith, MHA, Example 10)
